The values below come from article PMC6627609, “Targeting Quorum Sensing: High-Throughput Screening to Identify Novel LsrK Inhibitors” (International Journal of Molecular Sciences, 2019).

The target of the test is LsrK (Salmonella typhimurium, UniProt Q8ZKQ6). Nature of the test: biochemical. The class given is biochemical, S. typhimurium. The note with it: for Inhibition (%): 50 µM.

Where a name gives a salt, the structure may show the parent alone.

Chain of LsrK (Q8ZKQ6 whole entry): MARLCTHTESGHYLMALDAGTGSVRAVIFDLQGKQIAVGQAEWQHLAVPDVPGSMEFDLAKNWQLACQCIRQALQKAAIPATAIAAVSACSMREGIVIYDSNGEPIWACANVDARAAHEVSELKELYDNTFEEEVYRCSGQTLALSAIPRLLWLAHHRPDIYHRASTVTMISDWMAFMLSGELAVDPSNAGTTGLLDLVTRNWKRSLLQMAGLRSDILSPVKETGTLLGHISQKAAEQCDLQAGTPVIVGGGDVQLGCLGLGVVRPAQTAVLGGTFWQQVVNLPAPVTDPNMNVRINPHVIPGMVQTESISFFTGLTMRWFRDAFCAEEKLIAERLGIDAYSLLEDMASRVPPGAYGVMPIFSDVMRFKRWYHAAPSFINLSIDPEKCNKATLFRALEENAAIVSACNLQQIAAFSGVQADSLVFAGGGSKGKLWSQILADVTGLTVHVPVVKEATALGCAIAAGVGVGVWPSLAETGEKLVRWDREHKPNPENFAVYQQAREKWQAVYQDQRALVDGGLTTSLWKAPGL

As to `C1CCN2C[C@@H]3C[C@@H](CN4CCCC[C@@H]34)[C@H]2C1.I` [SPARTEINE HYDROIODIDE], the “Inhibition (%)” value is given as 1.
As for `NCCCNCCCCNCCCN` [SPERMINE], the inhibition at 50 µM worked out at 2%.
As for `COc1cc(C)c2c(c1C=O)Oc1c(c(C)c(O)c3c1C(O)OC3=O)OC2=O` (stereo not drawn) [STICTIC ACID], half-maximal inhibition (IC50) was put at 3 µM and the inhibition at 50 µM worked out at 119%.
As for `CC[C@H](/C=C/[C@@H](C)[C@H]1CC[C@H]2[C@@H]3CC=C4C[C@@H](O)CC[C@]4(C)[C@H]3CC[C@]12C)C(C)C` [STIGMASTEROL], the inhibition at 50 µM came out at 1%.
On to `C[C@]12CC[C@H]3[C@@H](CC[C@]4(O)C[C@@H](O)CC[C@]34C=O)[C@@]1(O)CC[C@@H]2C1=CC(=O)OC1` [STROPHANTHIDIN], for which the inhibition at 50 µM was found to be 0%.
Regarding `OC[C@H]1O[C@H](O[C@]2(CCl)O[C@H](CCl)[C@@H](O)[C@@H]2O)[C@H](O)[C@@H](O)[C@H]1Cl` [SUCRALOSE], the inhibition at 50 µM worked out at 3%.
On the same count and under the same terms, the same measure for `CC(=O)NS(=O)(=O)c1ccc(N)cc1` [SULFACETAMIDE]: 0%.
As for `COc1ncnc(NS(=O)(=O)c2ccc(N)cc2)c1OC` [SULFADOXINE], the inhibition at 50 µM is 1%.
With `Cc1ccnc(NS(=O)(=O)c2ccc(N)cc2)n1` [SULFAMERAZINE], the inhibition at 50 µM was found to be 2%.
Regarding `Cc1nnc(NS(=O)(=O)c2ccc(N)cc2)s1` [SULFAMETHIZOLE], the inhibition at 50 µM worked out at 2%.
For `Cc1cc(NS(=O)(=O)c2ccc(N)cc2)no1` [SULFAMETHOXAZOLE], the inhibition at 50 µM was found to be 1%.
The same measure, in the same setting: the same measure for `Nc1ccc(S(=O)(=O)Nc2cnc3ccccc3n2)cc1` [SULFAQUINOXALINE SODIUM]: 1%; for `O=C(O)c1cc(/N=N/c2ccc(S(=O)(=O)Nc3ccccn3)cc2)ccc1O` [SULFASALAZINE]: 5%; for `O=C1C(CC[S+]([O-])c2ccccc2)C(=O)N(c2ccccc2)N1c1ccccc1` (stereo not drawn) [SULFINPYRAZONE]: 129%.
For the molecule `CC(=O)N(c1onc(C)c1C)S(=O)(=O)c1ccc(N)cc1` [SULFISOXAZOLE ACETYL], the inhibition at 50 µM was 4%.
On to `Cc1noc(NS(=O)(=O)c2ccc(N)cc2)c1C` [SULFISOXAZOLE], for which the inhibition at 50 µM is 1%.
For the molecule `CCCCCCCCNC(C)C(O)c1ccc(SC(C)C)cc1` (stereo not drawn) [SULOCTIDIL], the inhibition at 50 µM is 0%.
With `CCN1CCCC1CNC(=O)c1cc(S(N)(=O)=O)ccc1OC` (stereo not drawn) [SULPIRIDE], the inhibition at 50 µM is 83%.
On to `Cc1ccc(C(=O)Nc2ccc(S(=O)(=O)O)c3cc(S(=O)(=O)O)cc(S(=O)(=O)O)c23)cc1NC(=O)c1cccc(NC(=O)Nc2cccc(C(=O)Nc3cc(C(=O)Nc4ccc(S(=O)(=O)O)c5cc(S(=O)(=O)O)cc(S(=O)(=O)O)c45)ccc3C)c2)c1` [SURAMIN], for which the inhibition at 50 µM came out at 110%.
Consider `CCCCC1(COC(=O)CCC(=O)O)C(=O)N(c2ccccc2)N(c2ccccc2)C1=O` [SUXIBUZONE], for which the inhibition at 50 µM turned out to be 8%.
Turning to `Cc1c(S(=O)(=O)[O-])oc2c1C(=O)C(=O)c1c-2ccc2c1CCCC2(C)C.[Na+]` [TANSHINONE IIA SULFONATE SODIUM], the “Inhibition (%)” value is 55.
Take `Cc1coc2c1C(=O)C(=O)c1c-2ccc2c1CCCC2(C)C` [TANSHINONE IIA]: the inhibition at 50 µM is 50%.
On to `CC[C@H]1OC(=O)[C@H](C)C(=O)[C@H](C)[C@@H](O[C@@H]2O[C@H](C)C[C@H](N(C)C)[C@H]2O)[C@](C)(OC)C[C@@H](C)C(=O)[C@H](C)[C@H]2N(CCCCn3cnc(-c4cccnc4)c3)C(=O)O[C@]12C` [TELITHROMYCIN], for which the inhibition at 50 µM stood at 7%.
Consider `COc1cc([C@@H]2c3cc4c(cc3[C@@H](O[C@@H]3O[C@@H]5CO[C@@H](c6cccs6)O[C@H]5[C@H](O)[C@H]3O)[C@H]3COC(=O)[C@H]23)OCO4)cc(OC)c1O` [TENIPOSIDE], for which the inhibition at 50 µM was 2%.
As for `COc1cc2nc(N3CCN(C(=O)C4CCCO4)CC3)nc(N)c2cc1OC` (stereo not drawn) [TERAZOSIN HYDROCHLORIDE], the inhibition at 50 µM stood at 1%.
As to `CN(C/C=C/C#CC(C)(C)C)Cc1cccc2ccccc12` [TERBINAFINE HYDROCHLORIDE], the inhibition at 50 µM was 1%.
Turning to `CC(C)(C)NCC(O)c1cc(O)cc(O)c1.CC(C)(C)NCC(O)c1cc(O)cc(O)c1.O=S(=O)(O)O` (stereo not drawn) [TERBUTALINE HEMISULFATE], the “Inhibition (%)” value was determined as 1.
Take `N#Cc1c(Cl)c(Cl)c(Cl)c(C#N)c1Cl` [TETRACHLOROISOPHTHALONITRILE]: 9 µM corresponded to half-maximal inhibition (IC50) and the inhibition at 50 µM stood at 138%.
As for `CN(C)[C@@H]1C(O)=C(C(N)=O)C(=O)[C@@]2(O)C(O)=C3C(=O)c4c(O)cccc4[C@@](C)(O)[C@H]3C[C@@H]12` [TETRACYCLINE HYDROCHLORIDE], the inhibition at 50 µM worked out at 114%.
Regarding `Cl.c1ccc(C2CN3CCSC3=N2)cc1` (stereo not drawn) [TETRAMIZOLE HYDROCHLORIDE], the “Inhibition (%)” value is 22.
For `O=C(O[C@@H]1Cc2c(O)cc(O)cc2O[C@@H]1c1cc(O)c(=O)c2c(O)c(O)cc([C@H]3Oc4cc(O)cc(O)c4C[C@H]3O)c2c1)c1cc(O)c(O)c(O)c1` [THEAFLAVIN MONOGALLATES], the inhibition at 50 µM turned out to be 129%.
Regarding `O=c1c(O)cc([C@H]2Oc3cc(O)cc(O)c3C[C@H]2O)cc2c([C@H]3Oc4cc(O)cc(O)c4C[C@H]3O)cc(O)c(O)c12` [THEAFLAVIN], the inhibition at 50 µM came out at 133%.
Still for that read-out and setting: the same measure for `CCNC(=O)CC[C@H](N)C(=O)O` [THEANINE]: 1%; for `Cn1cnc2c1c(=O)[nH]c(=O)n2C` [THEOBROMINE]: 0%.
As to `O=c1cccc2n1C[C@@H]1C[C@H]2CN2CCCC[C@H]12.[O-][Cl+3]([O-])([O-])O` [THERMOPSINE PERCHLORATE], the “Inhibition (%)” value is given as 0.
As to `c1ccc2[nH]c(-c3cscn3)nc2c1` [THIABENDAZOLE], the inhibition at 50 µM is 5%.
Regarding `O=C(O)CCCCC1CCSS1` (stereo not drawn) [THIOCTIC ACID], the “Inhibition (%)” value came out at 170%.
Take `Nc1nc2nc[nH]c2c(=S)[nH]1` [THIOGUANINE]: the inhibition at 50 µM was determined as 1%.
For `S=P(N1CC1)(N1CC1)N1CC1` [THIOTEPA], the inhibition at 50 µM worked out at 14%.
For the molecule `CN(C)C(=S)SSC(=S)N(C)C` [THIRAM], the inhibition at 50 µM worked out at 104%.
Turning to `COc1ccc(CN(CCN(C)C)c2ncccn2)cc1` [THONZYLAMINE HYDROCHLORIDE, reference compound], the IC50 turned out to be 24 µM and the inhibition at 50 µM stood at 112%.
On to `CC1=CC(=O)C(C(C)C)=CC1=O` [THYMOQUINONE], for which the inhibition at 50 µM came out at 2%.
Same read-out and setting: the same measure for `CC1(C)S[C@@H]2[C@H](NC(=O)[C@H](C(=O)O)c3ccsc3)C(=O)N2[C@H]1C(=O)O` [TICARCILLIN DISODIUM]: 0%.
Same read-out and setting: the same measure for `Clc1ccccc1CN1CCc2sccc2C1` [TICLOPIDINE HYDROCHLORIDE]: 1%; for `CC[C@H]1OC(=O)C[C@@H](O)[C@H](C)[C@@H](O[C@@H]2O[C@H](C)[C@@H](O)[C@H](N(C)C)[C@H]2O)[C@@H](CCN2C[C@H](C)C[C@H](C)C2)C[C@@H](C)C(=O)/C=C/C(C)=C/[C@@H]1CO[C@@H]1O[C@H](C)[C@@H](O)[C@@H](OC)[C@H]1OC` [TILMICOSIN]: 16%.
Same read-out and setting: the same measure for `CCS(=O)(=O)CCn1c([N+](=O)[O-])cnc1C` [TINIDAZOLE]: 1%; for `Clc1ccc(C(Cn2ccnc2)OCc2ccsc2Cl)c(Cl)c1` (stereo not drawn) [TIOCONAZOLE]: 2%.
Regarding `O=c1oc2cc(O)ccc2s1` [TIOXOLONE], the inhibition at 50 µM stood at 88%.
Consider `NC[C@H]1O[C@H](O[C@H]2[C@H](O)[C@@H](O[C@H]3O[C@H](CO)[C@@H](O)[C@H](N)[C@H]3O)[C@H](N)C[C@@H]2N)[C@H](N)C[C@@H]1O` [TOBRAMYCIN], for which the inhibition at 50 µM was 0%.
For `CCOC(=O)NNc1nncc2ccccc12` [TODRALAZINE HYDROCHLORIDE], the inhibition at 50 µM amounted to 2%.
With `Cc1c(Cl)cccc1Nc1ccccc1C(=O)O` [TOLFENAMIC ACID], the inhibition at 50 µM was found to be 97%.
`Cc1ccc(C(=O)c2ccc(CC(=O)O)n2C)cc1` [TOLMETIN SODIUM]: the inhibition at 50 µM stood at 1%.
The same measure, in the same setting: the same measure for `C[C@H]1CC[C@]2(NC1)O[C@H]1C[C@H]3[C@@H]4CC[C@H]5C[C@@H](O[C@@H]6O[C@H](CO)[C@H](O[C@@H]7O[C@H](CO)[C@@H](O)[C@H](O[C@@H]8OC[C@@H](O)[C@H](O)[C@H]8O)[C@H]7O[C@@H]7O[C@H](CO)[C@@H](O)[C@H](O)[C@H]7O)[C@H](O)[C@H]6O)CC[C@]5(C)[C@H]4CC[C@]3(C)[C@H]1[C@@H]2C` [TOMATINE]: 2%; for `CC1(C)O[C@@H]2[C@@H](CO[C@@]3(COS(N)(=O)=O)OC(C)(C)O[C@@H]23)O1` [TOPIRAMATE]: 1%.
Same read-out and setting: the same measure for `CC[C@@]1(O)C(=O)OCc2c1cc1n(c2=O)Cc2cc3c(CN(C)C)c(O)ccc3nc2-1` [TOPOTECAN HYDROCHLORIDE]: 0%.
In the case of `CN(C)CCOc1ccc(/C(=C(/CCCl)c2ccccc2)c2ccccc2)cc1` [TOREMIPHENE CITRATE], the “Inhibition (%)” value was found to be 138.
For `Cc1ccc(S(=O)(=O)NCl)cc1` [TOSYL[…]], the inhibition at 50 µM was found to be 3%.
Consider `CC(=O)Oc1ccc(/C=C/c2cc(OC(C)=O)cc(OC(C)=O)c2)cc1` [TRIACETYLRESVERATROL], for which the inhibition at 50 µM turned out to be 1%.
Take `C[C@]12C=CC(=O)C=C1CC[C@H]1[C@@H]3C[C@@H](O)[C@](O)(C(=O)CO)[C@@]3(C)C[C@H](O)[C@@]12F` [TRIAMCINOLONE]: the inhibition at 50 µM came out at 11%.
Consider `NS(=O)(=O)c1cc2c(cc1Cl)NC(C(Cl)Cl)NS2(=O)=O` (stereo not drawn) [TRICHLORMETHIAZIDE], for which the inhibition at 50 µM turned out to be 1%.
Turning to `Oc1cc(Cl)ccc1Oc1ccc(Cl)cc1Cl` [TRICLOSAN], the inhibition at 50 µM stood at 2%.
In the case of `Cl.Cl.NCCNCCNCCN` [TRIENTINE HYDROCHLORIDE], the “Inhibition (%)” value was 13.
Regarding `CN(C)CCCN1c2ccccc2Sc2ccc(C(F)(F)F)cc21` [TRIFLUPROMAZINE HYDROCHLORIDE], the inhibition at 50 µM amounted to 122%.
`COc1cc(Cc2cnc(N)nc2N)cc(OC)c1OC` [TRIMETHOPRIM]: the inhibition at 50 µM stood at 0%.
For the molecule `CC(CN(C)C)CN1c2ccccc2CCc2ccccc21` (stereo not drawn) [TRIMIPRAMINE MALEATE], the inhibition at 50 µM is 111%.
Consider `CN(C)CCN(Cc1ccccc1)c1ccccn1` [TRIPELENNAMINE CITRATE], for which the inhibition at 50 µM came out at 2%.

What is called inhibition is the change of the read-out against control, counted positive when it falls. As a reminder, the IC50 is the concentration that inhibits the measured activity by half. Low values mean higher potency, high ones lower potency.
